# Data: article PMC8509398, “Proteolytic Cleavage of Bioactive Peptides and Protease-Activated Receptors in Acute and Post-Colitis” (International Journal of Molecular Sciences, 2021)
# Residues, ends and D or L forms follow the SMILES beside them.
# Columns and labels:
# thrombin = thrombin (Homo sapiens, UniProt P00734); test: Cleavage of peptides by purified thrombin, MALDI-TOF/TOF; conditions: 25 nM protease, 10 µM peptide; for Incubation time at which the first cleavage or decrease of the full-length peptide was observed, thrombin: 37 °C, time points 2, 5, 10, 30 min; for TL disarming (D), Thrombin / TL unmasking (U), Thrombin: PAR-based peptides
# Description: (§1) Trypsin-like proteases included in the experiments are trypsin-1, -2 and -3, tryptase (Enzo LifeSciences), thrombin (Sigma-Aldrich) and cathepsin G (Sigma-Aldrich). Trypsin-1, -2 and -3 were produced as described by Koistinen et al. and Wu et al.. Two elastase-like enzymes, neutrophil elastase (Enzo LifeSciences, Farmingdale, NY, USA) and pancreatic elastase I (Sigma-Aldrich) were included as well. All enzymes were from human origin except for pancreatic elastase from porcine pancreas.
# (§2) Reaction mixtures with purified enzymes were compiled in an identical way. Each mixture contained an equimolar concentration of protease (25 nM based on) and 10 µM peptide of interest and was incubated for 2, 5, 10 and 30 min at 37 °C. Substance P was added as the standard peptide except for the reaction mixtures with substance P or bradykinin as the peptide of interest, where angiotensin II (Bachem) was added.
# (§3) The TFA mixtures were thawed on ice and desalted using C18 zip-tips (Merck Millipore®, Burlington, MA, USA) with a capacity of 5 µg protein. Retained peptide fragments were eluted directly on the MALDI target plate. Next, 0.5 µL of a 2.5 mg/mL α-cyano-4-hydroxycinnamic acid (Sigma-Aldrich) matrix solution (in 70% acetonitrile, 0.1% TFA) was spotted on top of the sample. A 6-Peptide mixture Kit (AB Sciex, Framingham, MA, USA) containing bradykinin (2–9), angiotensin I, glu1-fibrinopeptide, ACTH (1–17), ACTH (18–39) and ACTH (7–38) was diluted with matrix and spotted on the plate as well.
# (§4) MS and MS/MS data for peptide fragment identification were obtained with a MALDI-TOF/TOF instrument (4800 MALDI TOF/TOF™, Applied Biosystems, Waltham, MA, USA) and instrument parameters were set using 4000 Series Explorer™ software. MS spectra were recorded in positive reflector mode in a mass range from 500 to 4000 Da and laser intensity of 4500–4800 Hz. The spectra were calibrated using the calibration mixture mentioned above to a mass tolerance of 0.1 Da. MS/MS spectra were recorded with high-energy collision-induced dissociation and the laser intensity was increased by 10%. Precursor mass m/z 1570.65 (Glu1-Fibrinopeptide from the calibration mixture) was used to calibrate the MS/MS spectra to a mass tolerance of 0.1 Da.
# (§5) MS and MS/MS spectra were processed using DataExplorer™ software and the obtained output files were uploaded in the MS-PEP data analyzer (https://bioit.shinyapps.io/PARs/ accessed 10/08/2020) for peptide fragment identification. Identified fragments were confirmed using the MS/MS spectra and mMass 5.5.0 by Martin Strohalm. The relative intensities of the fragments were calculated as the ratio of the intensity of the peak of interest to the intensity of the peak of the standard peptide.
# trypsin-2 = trypsin-2 (Homo sapiens, UniProt P07478); test: Cleavage of peptides by purified trypsin-2, MALDI-TOF/TOF; conditions: 25 nM protease, 10 µM peptide; for Incubation time at which the first cleavage or decrease of the full-length peptide was observed, trypsin-2: 37 °C, time points 2, 5, 10, 30 min; for TL disarming (D), Trypsin-2 / TL unmasking (U), Trypsin-2: PAR-based peptides
# Description: as §1, §2, §3, §4, §5
# trypsin-1 = trypsin-1 (Homo sapiens, UniProt P07477); test: Cleavage of peptides by purified trypsin-1, MALDI-TOF/TOF; conditions: 25 nM protease, 10 µM peptide; for Incubation time at which the first cleavage or decrease of the full-length peptide was observed, trypsin-1: 37 °C, time points 2, 5, 10, 30 min; for TL disarming (D), Trypsin-1 / TL unmasking (U), Trypsin-1: PAR-based peptides
# Description: as §1, §2, §3, §4, §5
# neutrophil elastase = target: T1, neutrophil elastase (Homo sapiens, UniProt P08246); test: Cleavage of peptides by purified neutrophil elastase, MALDI-TOF/TOF; conditions: 25 nM protease, 10 µM peptide; for Incubation time at which the first cleavage or decrease of the full-length peptide was observed, neutrophil elastase: 37 °C, time points 2, 5, 10, 30 min; for TL disarming (D), Neutrophil Elastase / TL unmasking (U), Neutrophil Elastase: PAR-based peptides
# T1 sequence (P08246 30-267): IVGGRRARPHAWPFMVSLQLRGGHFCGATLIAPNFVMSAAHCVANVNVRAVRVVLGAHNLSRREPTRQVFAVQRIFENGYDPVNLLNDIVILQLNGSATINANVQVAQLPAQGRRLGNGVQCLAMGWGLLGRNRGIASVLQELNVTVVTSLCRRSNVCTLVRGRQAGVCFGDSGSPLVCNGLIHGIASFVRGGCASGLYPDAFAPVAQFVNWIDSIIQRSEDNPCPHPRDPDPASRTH
# Description: as §1
# (§6) Reaction mixtures with purified enzymes were compiled in an identical way. […] Substance P was added as the standard peptide except for the reaction mixtures with substance P or bradykinin as the peptide of interest, where angiotensin II (Bachem) was added.
# as §3
# (§7) MS and MS/MS data for peptide fragment identification were obtained with a MALDI-TOF/TOF instrument (4800 MALDI TOF/TOF™, Applied Biosystems, Waltham, MA, USA) and instrument parameters were set using 4000 Series Explorer™ software. MS spectra were recorded in positive reflector mode in a mass range from 500 to 4000 Da and laser intensity of 4500–4800 Hz. The spectra were calibrated using the calibration mixture mentioned above to a mass tolerance of 0.1 Da. MS/MS spectra were recorded with high-energy collision-induced dissociation and the laser intensity was increased by 10%.
# (§8) Identified fragments were confirmed using the MS/MS spectra and mMass 5.5.0 by Martin Strohalm. The relative intensities of the fragments were calculated as the ratio of the intensity of the peak of interest to the intensity of the peak of the standard peptide.
# trypsin-3 = target: T2, trypsin-3 (Homo sapiens, UniProt P35030); test: Cleavage of peptides by purified trypsin-3, MALDI-TOF/TOF; conditions: 25 nM protease, 10 µM peptide; for Incubation time at which the first cleavage or decrease of the full-length peptide was observed, trypsin-3: 37 °C, time points 2, 5, 10, 30 min; for TL disarming (D), Trypsin-3 / TL unmasking (U), Trypsin-3: PAR-based peptides
# T2 sequence (P35030 1-304): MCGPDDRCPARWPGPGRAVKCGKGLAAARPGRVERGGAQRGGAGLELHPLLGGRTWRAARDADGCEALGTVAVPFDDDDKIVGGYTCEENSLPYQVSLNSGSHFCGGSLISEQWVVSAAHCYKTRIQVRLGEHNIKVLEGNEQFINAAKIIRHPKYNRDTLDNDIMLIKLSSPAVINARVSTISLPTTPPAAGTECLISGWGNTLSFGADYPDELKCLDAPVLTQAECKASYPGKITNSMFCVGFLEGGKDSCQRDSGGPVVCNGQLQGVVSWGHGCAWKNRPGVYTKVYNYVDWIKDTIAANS
# Description: as §1, §2, §3, §4, §5
# cathepsin G = target: T3, cathepsin G (Homo sapiens, UniProt P08311); test: Cleavage of peptides by purified cathepsin G, MALDI-TOF/TOF; conditions: 25 nM protease, 10 µM peptide; for Incubation time at which the first cleavage or decrease of the full-length peptide was observed, cathepsin G: 37 °C, time points 2, 5, 10, 30 min; for TL disarming (D), Cathepsin G / TL unmasking (U), Cathepsin G: PAR-based peptides
# T3 sequence (P08311 21-255): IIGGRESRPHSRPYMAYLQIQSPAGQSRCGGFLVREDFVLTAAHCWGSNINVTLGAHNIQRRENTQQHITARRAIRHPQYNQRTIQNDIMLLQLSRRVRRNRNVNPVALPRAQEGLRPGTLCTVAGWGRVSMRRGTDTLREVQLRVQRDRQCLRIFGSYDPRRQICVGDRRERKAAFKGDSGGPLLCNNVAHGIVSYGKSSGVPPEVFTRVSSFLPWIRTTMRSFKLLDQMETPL
# Description: as §1, §6, §3, §7, §8
# [1] = 37 °C, 2, 5, 10 and 30 min, stopped with 2% TFA
# Chain of trypsin-2 (P07478 24-247): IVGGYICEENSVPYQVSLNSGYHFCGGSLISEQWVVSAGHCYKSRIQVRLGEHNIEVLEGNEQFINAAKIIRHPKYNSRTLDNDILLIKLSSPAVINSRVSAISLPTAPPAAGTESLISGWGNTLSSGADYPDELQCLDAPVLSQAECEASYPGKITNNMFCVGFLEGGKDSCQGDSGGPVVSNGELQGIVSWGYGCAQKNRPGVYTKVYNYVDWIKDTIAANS
SMILES,"Incubation time at which the first cleavage or decrease of the full-length peptide was observed, thrombin (thrombin) [min]","TL disarming (D), Thrombin (thrombin; 37 °C, 2, 5, 10 and 30 min)","TL unmasking (U), Thrombin (thrombin; 37 °C, 2, 5, 10 and 30 min)","Incubation time at which the first cleavage or decrease of the full-length peptide was observed, trypsin-2 (trypsin-2) [min]","TL disarming (D), Trypsin-2 (trypsin-2; 37 °C, 2, 5, 10 and 30 min)","TL unmasking (U), Trypsin-2 (trypsin-2; 37 °C, 2, 5, 10 and 30 min)","Incubation time at which the first cleavage or decrease of the full-length peptide was observed, trypsin-1 (trypsin-1) [min]","TL disarming (D), Trypsin-1 (trypsin-1; 37 °C, 2, 5, 10 and 30 min)","TL unmasking (U), Trypsin-1 (trypsin-1; 37 °C, 2, 5, 10 and 30 min)","Incubation time at which the first cleavage or decrease of the full-length peptide was observed, neutrophil elastase (neutrophil elastase) [min]","TL disarming (D), Neutrophil Elastase (neutrophil elastase; 37 °C, 2, 5, 10 and 30 min)","TL unmasking (U), Neutrophil Elastase (neutrophil elastase; 37 °C, 2, 5, 10 and 30 min)","Incubation time at which the first cleavage or decrease of the full-length peptide was observed, trypsin-3 (trypsin-3) [min]","TL disarming (D), Trypsin-3 (trypsin-3; 37 °C, 2, 5, 10 and 30 min)","TL unmasking (U), Trypsin-3 (trypsin-3; 37 °C, 2, 5, 10 and 30 min)","Incubation time at which the first cleavage or decrease of the full-length peptide was observed, cathepsin G (cathepsin G) [min]","TL disarming (D), Cathepsin G (cathepsin G; 37 °C, 2, 5, 10 and 30 min)","TL unmasking (U), Cathepsin G (cathepsin G; 37 °C, 2, 5, 10 and 30 min)",other results
CC[C@H](C)[C@H](NC(=O)[C@H](CC(C)C)NC(=O)[C@H](CO)NC(=O)[C@H](CCCNC(=N)N)NC(=O)CNC(=O)[C@H](CCCCN)NC(=O)[C@H](CO)NC(=O)[C@H](CO)NC(=O)[C@H](CCCNC(=N)N)NC(=O)[C@H](CC(N)=O)NC(=O)[C@@H](NC(=O)CNC(=O)[C@H](CCC(N)=O)NC(=O)[C@@H](NC(=O)[C@@H](N)[C@@H](C)O)[C@@H](C)CC)[C@@H](C)O)C(=O)NCC(=O)N[C@@H](CCCCN)C(=O)N[C@H](C(=O)N[C@@H](CC(=O)O)C(=O)NCC(=O)N[C@H](C(=O)N[C@@H](CO)C(=O)N[C@@H](Cc1c[nH]cn1)C(=O)N[C@H](C(N)=O)C(C)C)[C@@H](C)O)C(C)C [PAR2-based] (H-TIQGTNRSSKGRSLIGKVDGTSHV-NH2),> 30,−,−,2,−,+++ (ultrafast processing within 2 min),2,−,+++ (ultrafast processing within 2 min),30,+ (processing after 10 or 30 min),−,> 30,−,−,> 30,−,−,
CC[C@H](C)[C@H](NC(=O)[C@H](C)NC(=O)[C@H](CC(N)=O)NC(=O)[C@H](CCCCN)NC(=O)[C@H](Cc1ccccc1)NC(=O)[C@H](CC(C)C)NC(=O)[C@@H](NC(=O)[C@@H](NC(=O)[C@H](CC(C)C)NC(=O)[C@@H]1CCCN1C(=O)[C@@H](NC(=O)[C@H](CCC(N)=O)NC(=O)[C@H](CO)NC(=O)[C@H](CCCCN)NC(=O)[C@H](CCC(=O)O)NC(=O)[C@H](CO)NC(=O)[C@@H](NC(=O)[C@H](CCSC)NC(=O)[C@H](Cc1ccccc1)NC(=O)CNC(=O)CNC(=O)[C@@H](N)Cc1ccc(O)cc1)[C@@H](C)O)[C@@H](C)O)C(C)C)[C@@H](C)O)C(=O)N[C@H](C(=O)N[C@@H](CCCCN)C(=O)N[C@@H](CC(N)=O)C(=O)N[C@@H](C)C(=O)N[C@@H](Cc1ccc(O)cc1)C(=O)N[C@@H](CCCCN)C(=O)N[C@@H](CCCCN)C(=O)NCC(=O)N[C@@H](CCC(=O)O)C(=O)O)[C@@H](C)CC [β-endorphin],> 30,,,2,,,2,,,2,,,> 30,,,2,,,"Efficiency of the first cleavage in the peptide, Thrombin (thrombin; [1]): −; Efficiency of the first cleavage in the peptide, Trypsin-2 (trypsin-2; [1]): +++ (ultrafast processing within 2 min); Efficiency of the first cleavage in the peptide, Trypsin-1 (trypsin-1; [1]): +++ (ultrafast processing within 2 min); Efficiency of the first cleavage in the peptide, Neutrophil Elastase (neutrophil elastase; [1]): +++ (ultrafast processing within 2 min); Efficiency of the first cleavage in the peptide, Trypsin-3 (trypsin-3; [1]): −; Efficiency of the first cleavage in the peptide, Cathepsin G (cathepsin G; [1]): +++ (ultrafast processing within 2 min)"
CC[C@H](C)[C@H](NC(=O)[C@@H]1CCCN1C(=O)[C@H](CC(C)C)NC(=O)[C@@H](NC(=O)[C@@H]1CCCN1C(=O)[C@H](CCCCN)NC(=O)[C@H](C)NC(=O)[C@H](CC(C)C)NC(=O)[C@H](CC(N)=O)NC(=O)[C@H](CC(N)=O)NC(=O)[C@@H](NC(=O)[C@H](CC(=O)O)NC(=O)[C@H](CC(N)=O)NC(=O)[C@H](CCC(=O)O)NC(=O)[C@H](CCSC)NC(=O)CN)[C@@H](C)O)[C@@H](C)O)C(=O)N[C@@H](CCCCN)C(=O)N[C@H](C(=O)N[C@@H](Cc1ccccc1)C(=O)N[C@@H](CCCNC(=N)N)C(=O)NCC(=O)N[C@@H](C)C(=O)N1CCC[C@H]1C(=O)N1CCC[C@H]1C(=O)N[C@@H](CC(N)=O)C(=O)N[C@@H](CO)C(=O)N[C@@H](Cc1ccccc1)C(=O)N[C@@H](CCC(=O)O)C(N)=O)[C@@H](C)O [PAR3-based] (H-GMENDTNNLAKPTLPIKTFRGAPPNSFE-NH2),2,−,+++ (ultrafast processing within 2 min),2,++ (fast processing after 5 min),+++ (ultrafast processing within 2 min),2,+++ (ultrafast processing within 2 min),+++ (ultrafast processing within 2 min),,+++ (ultrafast processing within 2 min),−,,+ (processing after 10 or 30 min),−,,+++ (ultrafast processing within 2 min),−,
